# Data from PMC5268383, “Inhibition of STAT3 by Anticancer Drug Bendamustine” (PLoS ONE, 2017).
# “Also recorded” adds a separate entry of the source.
# How the values were obtained:
# rhSTAT3 = target: T1, rhSTAT3 (Homo sapiens, UniProt P40763); assay: Competition assay with cysteine-blocking reagent Alexa Fluor 488 C5 maleimide; assay type: binding; conditions: 2 h, 10 μM Alexa Fluor 488 C5 maleimide
# T1 construct: Full-length cDNAs were obtained from a human cDNA library by PCR; Avi-tag (biotinylated in BirA-BL21) (N); made in house; host or cells: Escherichia coli BirA-BL21
# Description: rhSTAT3 (0.89 μM) in 100 mM HEPES was incubated with 10 μM Alexa Fluor 488 C5 maleimide (Invitrogen, Paisley, UK), a thiol-reactive probe, in the presence or absence of 50 or 100 μM BENDA or HP2 for 2 h at room temperature. Samples were diluted in SDS-PAGE sample buffer without boiling or 2-mercaptoethanol and run on an SDS-PAGE gel. The protein was transferred to a nitrocellulose membrane and then blotted with Ni-HRP. The Alexa-labeled rhSTAT3 was analyzed by fluorescence (excitation/emission: 493/516 nm) and western blotting with Ni-HRP.
# [1] = target: T2, recombinant human STAT3 SH2 domain (Homo sapiens, UniProt P40763); assay: AlphaScreen SH2 binding assay, STAT3
# T2 construct: Full-length cDNAs were obtained from a human cDNA library by PCR; Avi-tag (biotinylated in BirA-BL21) (N); made in house; host or cells: Escherichia coli BirA-BL21
# Description: AlphaScreen assays were performed in a final reaction volume of 25 μL of the assay buffer, containing 10 mM HEPES-NaOH (pH 7.4), 50 mM NaCl, 1 mM EDTA (pH 8.0), 0.1% NP-40, and 10 ng/mL BSA in a 96-well microtiter plate at 25°C. The labeled Phospho-Tyr (pTyr) peptide probe was 5-carboxyfluorescein (FITC)-GpYLPQTV for STAT3, FITC-GpYDKPHVL for STAT1, and FITC-PSpYVNVQN for Grb2. A DMSO solution of BENDA was incubated with 50 nM of each SH2-containing protein for 15 min, 50 nM of the corresponding FITC-pTyr peptide was added, and the mixture was incubated for 90 min. Streptavidin-coated donor beads and anti-FITC acceptor beads were added and incubated for 90 min before the signals were measured with an Envision Xcite plate reader (PerkinElmer Life Sciences, Waltham, MA, USA).
# [2] = target: T3, STAT3 Cys712 mutant (C712A) (Homo sapiens, UniProt P40763, C712A); assay: SH2 binding AlphaScreen assay with Cys712 mutant recombinant STAT3; conditions: 100 μM BENDA, 375 nM mutant STAT3, 30 min
# T3 construct: Full-length cDNAs were obtained from a human cDNA library by PCR; Avi-tag (N); 6His-tag (N); made in house; host or cells: Escherichia coli (pET-28a; host inferred to be the same BirA-BL21 as for wild type)
# Description: (§1) Point mutations were introduced into recombinant human STAT3 (rhSTAT3) by inverse PCR. We mutated Cys468, Cys542, Cys550, Cys687, and Cys712 near the SH2 domain to alanine. Inverse PCR was performed by using pBluescript II KS (+) as a template, KOD-Plus-ver. 2 (Toyobo, Osaka, Japan), and the following oligonucleotide primer set: Cys468 (forward: 5’-TCCAACATCG CTCAGATGCC AAATG-3’, reverse: 5′-GATCACCACA ACTGGCAAGG AGTGG-3′); Cys542 (forward: 5′-GAATTATTCAGGGGCTCAGATCACATGGGCTAAAT-3′, reverse: 5′-ACACCAGGTC CCAAGAGTTT CTCTGCC-3′); Cys550 (forward: 5′-GCTAAATTTG CCAAAGAAAA CATGGCTGGC-3′, reverse: 5′-CCATGTGATC TGACACCCTG AATAATTCA CACC-3′); Cys687 (forward: 5′-GGAAAGTATG CTCGGCCAGA GAGCCAG-3′, reverse: 5′-GAATGCCTCC TCCTTGGGAA TGTCAGG-3′); and Cys712 (forward: 5′-AAGTTTATCG CTGTGACACC AACGACCTGC-3′, reverse: 5′-GGTCTTCAGG TATGGGGCAG CGCTAC-3′). Inverse PCR (1 × PCR buffer, 1.5 mM MgSO4, 15 pmol 5′ primer and 3′ primer, 0.2 mM dNTPs, 50 ng STAT3 cDNA, 1 U KOD Plus) was performed under the following conditions: 2 min at 94°C, (10 s at 98°C, and 6.5 min at 68°C)×7 cycles. The amplified fragment was ligated by using Ligation High ver. 2 (Toyobo). The resultant plasmid was cloned into the HindIII/XhoI sites of modified pET-28a (+). The nucleotides coding for human mutant STAT3 in pET-28a (+) were named mutant STAT3 His-Avi-pET28a (+). […]
# [3] = target: T4, STAT3-CFP / STAT3-YFP in HEK293 cells (Homo sapiens, UniProt P40763); assay: FRET assay of STAT3 dimerization; assay type: cell-based; conditions: HEK293, 10, 20 or 50 μM, pretreatment before 50 ng/mL IL-6 stimulation
# T4 construct: expressed in transfected cells; host or cells: HEK293
# Description: The expression vectors for the fusion proteins STAT3-CFP and STAT3-YFP were prepared by the addition of STAT3 cDNA to pAmCyan1-N1 and pZsyellow1-N1. The vector mixture (1:1) was transfected into HEK293 cells with Lipofectamine 2000. The cells were cultured with 2% FBS DMEM for 48 h in a 96-well microtiter plate, treated with 0, 10, 20, or 50 μM BENDA or HP2 in a final DMSO concentration of 0.2% for 24 h, and then stimulated with 50 ng/mL IL-6 for a further 1 h. Fluorescence signals were measured (SpectraMax M5SK). The signals measured by FRET (excitation/emission: 436/528 nm) were corrected for crosstalk signals from cyan (excitation/emission: 436/488 nm) and yellow (excitation/emission: 517/528 nm).
# [4] = target: T5, STAT3 Cys550 mutant (C550A) (Homo sapiens, UniProt P40763, C550A); assay: SH2 binding AlphaScreen assay with Cys550 mutant recombinant STAT3; conditions: 100 μM BENDA, 375 nM mutant STAT3, 30 min
# T5 construct: Full-length cDNAs were obtained from a human cDNA library by PCR; Avi-tag (N); 6His-tag (N); made in house; host or cells: Escherichia coli (pET-28a; host inferred to be the same BirA-BL21 as for wild type)
# Description: as §1
# T2 sequence (P40763 whole entry, the tested form may be a part): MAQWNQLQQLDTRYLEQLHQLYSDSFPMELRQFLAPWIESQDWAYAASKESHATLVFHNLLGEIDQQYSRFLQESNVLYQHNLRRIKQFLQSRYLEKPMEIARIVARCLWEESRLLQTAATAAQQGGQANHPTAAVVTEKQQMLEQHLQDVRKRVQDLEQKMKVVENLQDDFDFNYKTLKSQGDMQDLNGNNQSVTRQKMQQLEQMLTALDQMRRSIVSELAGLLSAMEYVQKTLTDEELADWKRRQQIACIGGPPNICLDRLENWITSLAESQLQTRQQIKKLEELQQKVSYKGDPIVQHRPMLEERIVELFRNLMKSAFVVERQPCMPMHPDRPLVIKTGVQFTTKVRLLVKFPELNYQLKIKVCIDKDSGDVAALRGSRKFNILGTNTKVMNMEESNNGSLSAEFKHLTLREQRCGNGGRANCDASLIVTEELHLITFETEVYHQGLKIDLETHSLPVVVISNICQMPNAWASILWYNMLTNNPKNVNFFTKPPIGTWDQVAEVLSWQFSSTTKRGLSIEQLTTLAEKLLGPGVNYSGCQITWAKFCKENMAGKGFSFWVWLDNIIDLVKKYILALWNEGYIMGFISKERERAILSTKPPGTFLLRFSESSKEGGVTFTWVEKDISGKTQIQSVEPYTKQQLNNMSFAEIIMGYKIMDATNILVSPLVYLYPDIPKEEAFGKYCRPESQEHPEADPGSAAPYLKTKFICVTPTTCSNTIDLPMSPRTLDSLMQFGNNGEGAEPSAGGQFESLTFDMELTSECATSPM
# T1 sequence (P40763 whole entry): as the sequence (P40763 whole entry, the tested form may be a part) above
# T5 sequence (P40763 whole entry C550A): as the sequence (P40763 whole entry, the tested form may be a part) above, with C550A counted along it
# T3 sequence (P40763 whole entry C712A): as the sequence (P40763 whole entry, the tested form may be a part) above, with C712A counted along it
# T4 sequence (P40763 whole entry): as the sequence (P40763 whole entry, the tested form may be a part) above
compound,measurement,setting,value
"Cn1c(CCCC(=O)O)nc2cc(N(CCCl)CCCl)ccc21 [BENDA, 4-{5-[bis(2-chloroethyl)amino]-1-methyl-2-benzimidazolyl} butyric acid]",Fluorescence intensity of Alexa-labeled rhSTAT3 (reduced to),rhSTAT3; 50 μM compound,62%
same,Fluorescence intensity of Alexa-labeled rhSTAT3 (reduced to),rhSTAT3; 100 μM compound,52%
same,IC50,[1],7.4 µM
same,SH2 binding inhibition in presence of 2-mercaptoethanol,"[1]; 200 μM (0.2 mM) 2-mercaptoethanol, data not shown",did not inhibit; also recorded: wholly inactivated
same,SH2 inhibitory activity in presence of excess L-cysteine,[1]; 200 μM (0.2 mM) L-cysteine added to assay mixture,attenuated; also recorded: wholly inactivated
same,inhibition at 100 µM,[2],25%
same,Effect on FRET signals (STAT3 dimerization),[3],reduced the FRET signals
same,inhibition at 100 µM,[4],3%
